Legend:
rat orexin 1 receptor = rat orexin 1 receptor (Rattus norvegicus, UniProt P56718); test: Rat orexin 1 receptor radioligand binding; conditions: rat orexin 1 receptor radioligand binding; averages of 2-20 runs; read-out: rOX1 Ki
Method in brief: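 Cell-suspension competition binding used 4 nM final tritiated thiazolyl-pyrrolidinyl-methanone radioligand in PBS, ≤0.1% DMSO, with 10 µM almorexant defining nonspecific binding. Filter-bound radioactivity was counted in triplicate. IC50 came from one-site competition fits and was converted to Ki using the predetermined Kd.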

human orexin 1 receptor = human orexin 1 receptor (Homo sapiens, UniProt O43613); test: Human orexin 1 receptor radioligand binding; conditions: human orexin 1 receptor radioligand binding; averages of 2-20 runs; read-out: hOX1 Ki
Method: The in vitro affinity of the compounds of the invention for the rat/human orexin 1 and human orexin 2 receptors was determined by competitive radioligand binding using [^3H](1-(5-(2-fluoro-phenyl)-2-methyl-thiazol-4-yl)-1-((S)-2-(5-phenyl-(1,3,4)oxadiazol-2-ylmethyl)-pyrrolidin-1-yl)-methanone) (Langmead et al., 2004) and [^3H]EMPA (n-ethyl-2[96-methoxypyridin-3-yl)-(toluene-2-sulfonyl)-amino]-N-pyridin-3-ylmethyl acetamide), respectively (Langmead et al., 2004, British Journal of Pharmacology 141:340-346; Malherbe et al., 2004, British Journal of Pharmacology 156:1326-41).
Data are analyzed using pc-Sandy macro and graphed on Graphpad Prism 5. For analysis, each concentration point is averaged from triplicate values and the averaged values are plotted on Graphpad Prism. The IC50 was determined by applying the following equation (GraphPad Prism 5.0, SanDiego) for one site competition where X=log (concentration) and Y=specific binding. Top denotes the total [^3H]-(1-(5-(2-fluoro-phenyl)-2-methyl-thiazol-4-yl)-1-((S)-2-(5-phenyl-(1,3,4)oxadiazol-2-ylmethyl)-pyrrolidin-1-yl)-methanone) binding, bottom denotes the nonspecific [^3H]-(1-(5-(2-fluoro-phenyl)-2-methyl-thiazol-4-yl)-1-((S)-2-(5-phenyl-(1,3,4)oxadiazol-2-ylmethyl)-pyrrolidin-1-yl)-methanone) binding. Graphpad Prism calculates Ki value from IC50 and the pre-determined Kd values for [^3H]-(1-(5-(2-fluoro-phenyl)-2-methyl-thiazol-4-yl)-1-((S)-2-(5-phenyl-(1,3,4)oxadiazol-2-ylmethyl)-pyrrolidin-1-yl)-methanone) and [3H]-EMPA. The Ki for each compound is then uploaded into 3DX. Each run comprises individual compounds in triplicate.
Rat and Human Orexin 1 Receptor Radioligand Binding Studies
Human Embryonic Kidney 293 cells (HEK293) stably expressing rat orexin 1 receptor (Genebank accession number NM_001525) or Chinese ovary cells (CHO) stably expressing human orexin 1 receptor (Genebank accession number NM_001526) were grown to confluency in DMEM (Hyclone, cat #SH30022), 10% FBS, 1×Pen/Strep, 1× sodium pyruvate, 10 mM HEPES, 600 μg/mL G418 and DMEM/F12 (Gibco, Cat #11039), 10% FBS, 1×Pen/Strep, 600 μg/mL G418 media, respectively on 150 cm^2 tissue culture plates, washed with 5 mM EDTA in PBS (HyClone Dulbecco's Phosphate Buffered Saline 1× with Calcium and Magnesium, Cat #SH30264.01, hereafter referred to simply as PBS) and scraped into 50 ml tubes. After centrifugation (2K×G, 5 min at 4° C.), the supernatant was aspirated and the pellets frozen and stored at −80° C. Cells were resuspended in PBS in the presence of 1 tablet of protease inhibitor cocktail (Roche, Cat. #11836145001) per 50 mL. Each cell pellet from a 15 cm plate was resuspended in 10 mL, stored on ice, and homogenized for 45 sec prior to addition to the reactions. Competition binding experiments in 96 well polypropylene plates were performed using [^3H]-(1-(5-(2-fluoro-phenyl)-2-methyl-thiazol-4-yl)-1-((S)-2-(5-phenyl-(1,3,4)oxadiazol-2-ylmethyl)-pyrrolidin-1-yl)-methanone) (Moraveck Corporation, specific activity=35.3 Ci/mmol), diluted to a 10 nM concentration in PBS (4 nM final). […] The final concentration of DMSO in the reactions is equal to or less than 0.1%. Total and nonspecific binding was determined in the absence and presence of 10 μM almorexant. The total volume of each reaction is 200 μL (20 μL of diluted compounds, 80 μL of [^3H]-(1-(5-(2-fluoro-phenyl)-2-methyl-thiazol-4-yl)-1-((S)-2-(5-phenyl-(1,3,4)oxadiazol-2-ylmethyl)-pyrrolidin-1-yl)-methanone) diluted in PBS and 100 μL of the cell suspension). Reactions were run for 60 min at room temperature and terminated by filtration through GF/C filter plates (PerkinElmer, Cat. #6005174) presoaked in 0.3% polyethylenimine using the cell harvester (PerkinElmer Filtermate). The plates were washed 3 times by aspirating 30 ml PBS through the plates. Plates were dried in 55° C. oven for 60 min, scintillation fluid was added, and the radioactivity was counted on a Topcount (Packard).

human orexin 2 receptor = human orexin 2 receptor (Homo sapiens (Human), UniProt O43614); test: Human orexin 2 receptor radioligand binding ([3H]-EMPA); conditions: averages of 2-20 runs, read-out: hOX2 Ki
Method in brief: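 Competition binding using homogenized HEK293 cells stably expressing human orexin 2 receptor, [3H]-EMPA at 2 nM final and ≤0.1% DMSO; nonspecific binding set with 10 μM almorexant. Filter-bound radioactivity counted by scintillation; one-site competition IC50 converted to Ki using pre-determined Kd, compounds run in triplicate.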

Chain of human orexin 2 receptor (O43614 whole entry): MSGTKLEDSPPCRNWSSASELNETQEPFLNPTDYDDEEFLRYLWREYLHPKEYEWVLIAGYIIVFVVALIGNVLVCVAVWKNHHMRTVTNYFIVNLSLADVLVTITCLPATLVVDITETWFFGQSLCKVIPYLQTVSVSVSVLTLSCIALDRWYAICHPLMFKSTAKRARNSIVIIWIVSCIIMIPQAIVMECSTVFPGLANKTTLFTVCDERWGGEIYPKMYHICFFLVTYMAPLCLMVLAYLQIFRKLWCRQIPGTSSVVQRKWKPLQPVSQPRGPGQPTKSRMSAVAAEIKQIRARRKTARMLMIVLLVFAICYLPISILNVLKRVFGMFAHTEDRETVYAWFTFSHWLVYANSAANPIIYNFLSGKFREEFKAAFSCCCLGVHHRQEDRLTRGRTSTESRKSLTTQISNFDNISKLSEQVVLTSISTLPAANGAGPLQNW

Row | Structure (SMILES) | Ki (rat orexin 1 receptor) [nM] | Ki (human orexin 1 receptor) [nM] | Ki (human orexin 2 receptor) [nM]
1 | Cc1ccc(C(=O)N2CCC[C@@H](Oc3ccc(C(F)(F)F)cn3)[C@@H]2C)c(-n2nccn2)c1 [Example 112, (4-methyl-2-(2H-1,2,3-triazol-2-yl)phenyl)((2S,3R)-2-methyl-3-((5-(trifluoromethyl)pyridin-2-yl)oxy)piperidin-1-yl)methanone] | 7 | 11 | 664
2 | Cc1ccc(C(=O)N2CCC[C@@H](Oc3cnc(C(F)(F)F)cn3)[C@@H]2C)c(-n2nccn2)c1 [Example 113, (4-methyl-2-(2H-1,2,3-triazol-2-yl)phenyl)((2S,3R)-2-methyl-3-((5-(trifluoromethyl)pyrazin-2-yl)oxy)piperidin-1-yl)methanone] | 25 | 43 | 3900
3 | C[C@H]1[C@H](Oc2ccc(C(F)(F)F)cn2)CCCN1C(=O)c1cccc(F)c1-c1ncccn1 [Example 116, (3-fluoro-2-(pyrimidin-2-yl)phenyl)((2S,3R)-2-methyl-3-((5-(trifluoromethyl)pyridin-2-yl)oxy)piperidin-1-yl)methanone] | 15 | 18 | 598
4 | C[C@H]1[C@H](Oc2ccc(C(F)(F)F)cn2)CCCN1C(=O)c1cccc(F)c1-n1nccn1 [Example 124, (3-fluoro-2-(2H-1,2,3-triazol-2-yl)phenyl)((2S,3R)-2-methyl-3-((5-(trifluoromethyl)pyridin-2-yl)oxy)piperidin-1-yl)methanone] | 21 | 13 | 460
5 | C[C@H]1[C@H](Oc2cnc(C(F)(F)F)cn2)CCCN1C(=O)c1cccc(F)c1-n1nccn1 [Example 125, (3-fluoro-2-(2H-1,2,3-triazol-2-yl)phenyl)((2S,3R)-2-methyl-3-((5-(trifluoromethyl)pyrazin-2-yl)oxy)piperidin-1-yl)methanone] | 117 | 138 | 2500
6 | C[C@H]1[C@H](Oc2ccc(C(F)(F)F)cn2)CCCN1C(=O)c1cc(F)ccc1-c1ncccn1 [Example 138, (5-fluoro-2-(pyrimidin-2-yl)phenyl)((2S,3R)-2-methyl-3-((5-(trifluoromethyl)pyridin-2-yl)oxy)piperidin-1-yl)methanone] | 20 | 18 | 544
7 | C[C@H]1[C@H](Oc2ccc(C(F)(F)F)cn2)CCCN1C(=O)c1ccc(F)cc1-c1ncccn1 [Example 139, (4-fluoro-2-(pyrimidin-2-yl)phenyl)((2S,3R)-2-methyl-3-((5-(trifluoromethyl)pyridin-2-yl)oxy)piperidin-1-yl)methanone] | 51 | 51 | 1200
8 | Cc1ccc(C(=O)N2CCC[C@@H](Oc3ccc(C(F)(F)F)cn3)[C@@H]2C)c(-n2nccn2)n1 [Example 150, (6-methyl-2-(2H-1,2,3-triazol-2-yl)pyridin-3-yl)((2S,3R)-2-methyl-3-((5-(trifluoromethyl)pyridin-2-yl)oxy)piperidin-1-yl)methanone] | 32 | 39 | > 10000
9 | Cc1cccc(C(=O)N2CCC[C@@H](Oc3ccc(C(F)(F)F)cn3)[C@@H]2C)c1-c1ncccn1 [Example 151, (3-methyl-2-(pyrimidin-2-yl)phenyl)((2S,3R)-2-methyl-3-((5-(trifluoromethyl)pyridin-2-yl)oxy)piperidin-1-yl)methanone] | 35 | 31 | 537
10 | Cc1cccc(C(=O)N2CCC[C@@H](Oc3ccc(C(F)(F)F)cn3)[C@@H]2C)c1-n1nccn1 [Example 152, (3-methyl-2-(2H-1,2,3-triazol-2-yl)phenyl)((2S,3R)-2-methyl-3-((5-(trifluoromethyl)pyridin-2-yl)oxy)piperidin-1-yl)methanone] | 28 | 20 | 412
11 | C[C@H]1[C@H](Oc2ncc(C(F)(F)F)cc2F)CCCN1C(=O)c1cccc(F)c1-c1ncccn1 [Example 155, (3-fluoro-2-(pyrimidin-2-yl)phenyl)((2S,3R)-3-((3-fluoro-5-(trifluoromethyl)pyridin-2-yl)oxy)-2-methylpiperidin-1-yl)methanone] | 28 | 16 | 1100

The remaining compounds from weak to strong by Ki (rat orexin 1 receptor), led by results:

Row | Ki (rat orexin 1 receptor) [nM] | Ki (human orexin 1 receptor) [nM] | Ki (human orexin 2 receptor) [nM] | Structure (SMILES)
12 | 50 | 31 | 765 | C[C@H]1[C@H](Oc2ccc(C(F)(F)F)cn2)CCCN1C(=O)c1ccc(F)cc1-n1nccn1 [Example 147, (4-fluoro-2-(2H-1,2,3-triazol-2-yl)phenyl)((2S,3R)-2-methyl-3-((5-(trifluoromethyl)pyridin-2-yl)oxy)piperidin-1-yl)methanone]
13 | 47 | 30 | 1300 | C[C@H]1[C@H](Oc2ncc(C(F)(F)F)cc2F)CCCN1C(=O)c1ccccc1-c1ncc(F)cn1 [Example 156, ((2S,3R)-3-((3-fluoro-5-(trifluoromethyl)pyridin-2-yl)oxy)-2-methylpiperidin-1-yl)(2-(5-fluoropyrimidin-2-yl)phenyl)methanone]
14 | 46 | 22 | 526 | C[C@H]1[C@H](Oc2ncc(C(F)(F)F)cc2F)CCCN1C(=O)c1ccccc1-c1ncccn1 [Example 154, ((2S,3R)-3-((3-fluoro-5-(trifluoromethyl)pyridin-2-yl)oxy)-2-methylpiperidin-1-yl)(2-(pyrimidin-2-yl)phenyl)methanone]
15 | 31 | 22 | 676 | C[C@H]1[C@H](Oc2ccc(C(F)(F)F)cn2)CCCN1C(=O)c1ccccc1-c1ncc(F)cn1 [Example 141, (2-(5-fluoropyrimidin-2-yl)phenyl)((2S,3R)-2-methyl-3-((5-(trifluoromethyl)pyridin-2-yl)oxy)piperidin-1-yl)methanone]
16 | 25 | 15 | 473 | C[C@H]1[C@H](Oc2ccc(C(F)(F)F)cn2)CCCN1C(=O)c1ccccc1-c1ncccn1 [Example 143, ((2S,3R)-2-methyl-3-((5-(trifluoromethyl)pyridin-2-yl)oxy)piperidin-1-yl)(2-(pyrimidin-2-yl)phenyl)methanone]
17 | 24 | 18 | 5600 | Cc1cnc(-n2nccn2)c(C(=O)N2CCC[C@@H](Oc3ccc(C(F)(F)F)cn3)[C@@H]2C)c1 [Example 149, (5-methyl-2-(2H-1,2,3-triazol-2-yl)pyridin-3-yl)((2S,3R)-2-methyl-3-((5-(trifluoromethyl)pyridin-2-yl)oxy)piperidin-1-yl)methanone]

From patent US9611251B2, “Substituted piperidine compounds and their use as orexin receptor modulators” (Janssen Pharmaceutica NV, priority 2013, dated 2017)
